Columns and labels:
X4 tropic viruses = settings: inhibitory concentration of drug; U87/CD4/CXCR4
Method: One cell line expresses CD4 plus CCR5 (U87/CD4/CCR5), also referred to as R5 cells in this application. The other cell line expresses CD4 and CXCR4 (U87/CD4/CXCR4) also referred to as X4 cells in this application. The virus entry assay is performed by infecting individual cell cultures with recombinant virus stocks derived from cells transfected with pHIVenv and pHIV luc or pHIVlucΔU3 vectors. pHIVenv vectors contain patient virus derived sequences and express HIV-1 envelope proteins (gp120SU, gp41TM). In this embodiment viruses are evaluated in using R5 and X4 target cells cultured in 96 well plates (FIG. 3A). Typically, R5 and X4 cells are plated one day prior to infection. […] Co-receptor tropism is assessed by comparing the amount of luciferase activity produced in each cell type, both in the presence and absence of drug. In this embodiment, the results of the assay are interpreted by comparing the ability of each virus to preferentially infect (produce luciferase activity) R5 cells or X4 cells, or both X4 and R5 cells if the virus is dual tropic. The ability of the CCR5 or CXCR4 inhibitor to specifically block infection (inhibit luciferase activity) is also evaluated (FIG. 3B).

[1] = system: HIV-1 (NL4-3, JRCSF) with mutations in the GIV motif of gp41; test: Virus entry assay: T-20 susceptibility of site directed gp41 mutant viruses; assay type: cell-based; settings: cells expressing CD4, CCR5 and CXCR4; luciferase; compared by IC50
Method: Susceptibility assays for HIV-1 entry inhibitors were performed using packaging host cells consisting of the human embryonic kidney cell line 293 (Cell Culture Facility, UC San Francisco, SF, CA) and target host cells consisting of a human osteosarcoma (HOS) cell line expressing CD4 (HT4) plus CCR5, and CXCR4, or astrocytoma (U-87) cell lines expressing either CD4 and CCR5 or CD4 and CXCR4.
Drug susceptibility testing was performed using pHIVenv and pHIVluc or pHIVlucΔU3. Pseudotyped HIV particles containing envelope proteins encoded by the patient derived segment were produced by transfecting a packaging host cell (HEK 293) with resistance test vector DNA. […] After infection (˜72 h) the target cells are lysed and luciferase activity is measured. […] The amount of luciferase activity detected in the infected cells is used as a direct measure of “infectivity” (FIGS. 1 and 2). […] Drug susceptibility is assessed by comparing the infectivity in the absence of drug to infectivity in the presence of drug. Relative drug susceptibility can be quantified by comparing the susceptibility of the “test” virus to the susceptibility of a well-characterized reference virus (wildtype) derived from a molecular clone of HIV-1, for example NL4-3 or HXB2. […]

| Molecule | Infection of X4 cells by X4 tropic viruses (luciferase activity) (X4 tropic viruses) | T-20 susceptibility of viruses with one mutation in gp41 motif (DIV, GIM, SIV) vs wildtype virus (GIV) [1] | T-20 susceptibility of viruses with two mutations in GIV motif (DIM, SIM, DTV) vs viruses with one or no mutations [1] |
| --- | --- | --- | --- |
| c1cc(CN2CCCNCCNCCCNCC2)ccc1CN1CCCNCCNCCCNCC1 [AMD3100] | blocked | – | – |
| enfuvirtide | – | less susceptible | less susceptible |
